Consider two compounds from US20240133884A1, “COMPOSITIONS AND METHODS FOR DETECTING TRYPANOSOMA CRUZI INFECTION” (University of Georgia Research Foundation, Inc., priority 2022, published 2024).

The subject of series [1] is T. cruzi serine carboxypeptidase (CBP). The series can be described thus: Sensitivity of serine carboxypeptidase (CBP) knockout T. cruzi amastigotes. The format is cell-based, Trypanosoma cruzi. On the procedure:
The in vitro anti-T. cruzi amastiogote activity assay was performed and optimized based on the protocol described previously (Canavaci, et al., PLoS neglected tropical diseases 4, e740 (2010)). The change in tdTomato fluorescence intensity was determined as a measurement of growth over 72 hours of culture. For assaying drug effects on extracellular amastigotes, trypomastigotes were collected from infected Vero cell cultures and converted in acidic media as previously described (Tomlinson, et al., Parasitology 110 (Pt 5), 547-554 (1995)). Amastigotes (50,000/well) were incubated with 2-fold serial dilutions of compounds for 48 hours. The ATP production was used as an indication of growth in this case, and was measured by ATPlite Luminescence ATP Detection Assay System (PerkinElmer). Both fluorescence and luminescence were read using a BioTek Synergy Hybrid Multi-Mode reader equipped with the software Gene5 v 2.0 (BioTek). […]
The CBPs knockout was produced using ribonucleoprotein (RNP) complexes as previously described (Soares Medeiros, et al., mBio 8 (2017)). Briefly, Brazil tdTomato strain epimastigotes were electroporated with RNP complexes containing SaCas9 and an sgRNA targeting CBP gene TcBrA4_0048170, plus a repair template containing stop codons in all three reading frames and the M13 sequence for use as a PCR anchor. […]

Series [2] in a line: High dose 7-day toxicology studies in rats. The format is in vivo. The following applies: for dose proportionality of exposure: high dose 7-day toxicology studies, oral; for NOAEL dose: allometric scaling from rats.
In series [3] the test system is T. cruzi (Brazil strain). The series can be described thus: In vivo killing time assay: mouse footpads, Luciferase-expressing T. cruzi. More on the design: species or system Trypanosoma cruzi. The following applies: mice, single oral dose 25 mg/kg (FIG. 1C). On the procedure:
Cure assays: Male or female C57BL/6 mice were intraperitoneally infected with 10^4 trypomastigotes of the Brazil strain. Mouse infection was confirmed at 25-30 dpi by detection of CD8^+ T cells specific against the T. cruzi TSKb20 peptide in blood (Martin, et al., PLoS pathogens 2, e77 (2006)). Compounds resuspended in 1% carboxymethyl cellulose and 0.1% Tween 80, were administered daily by gavage at the specified concentrations. In order to optimally detect persistent infection, immune responses in the mice were suppressed by intraperitoneal injection of four doses of cyclophosphamide every 2-3 days (200 mg/kg/day), beginning one week after the end of therapeutic treatment. At the end of the immunosuppression regimen, peripheral blood was checked under light microscope for parasites and cultured in LDNT media (Bustamante, et al., The Journal of infectious diseases 209, 150-162 (2014)). […] In vivo killing time assays: C57BL/6 mice were infected with 2.5×10^5 Luciferase-expressing T. cruzi (Brazil strain) in the foot pads, and two days later one oral dose of AN14353 (25 mg/kg) was administered. The bioluminescent signal in the feet after i.p. injection of D-luciferin (PerkinElmer; 250 mg/kg) was measured in a Lumina II IVIS imager (PerkinElmer). […]

Another series has as its system cytochrome P450 enzymes. The series can be described thus: Inhibition of representative cytochrome P450 enzymes. The format is in vitro ADME. The following applies: 10 uM.
Series [4] concerns T. cruzi extracellular amastigotes. The series can be described thus: Extracellular amastigote assay (ATPlite ATP production, 48 hours). The format is cell-based, Trypanosoma cruzi. The following applies: in words. On the procedure:
(§1) The in vitro anti-T. cruzi amastiogote activity assay was performed and optimized based on the protocol described previously (Canavaci, et al., PLoS neglected tropical diseases 4, e740 (2010)). The change in tdTomato fluorescence intensity was determined as a measurement of growth over 72 hours of culture. For assaying drug effects on extracellular amastigotes, trypomastigotes were collected from infected Vero cell cultures and converted in acidic media as previously described (Tomlinson, et al., Parasitology 110 (Pt 5), 547-554 (1995)). Amastigotes (50,000/well) were incubated with 2-fold serial dilutions of compounds for 48 hours. The ATP production was used as an indication of growth in this case, and was measured by ATPlite Luminescence ATP Detection Assay System (PerkinElmer). Both fluorescence and luminescence were read using a BioTek Synergy Hybrid Multi-Mode reader equipped with the software Gene5 v 2.0 (BioTek). The dose-response curve was generated by […] analysis with GraphPad Prism v9.4.0 (GraphPad Software). IC50 was determined as the drug concentration that was required to inhibit 50% of growth compared to that of parasites with no drug exposure.

Another series in a line: Standard Ames study. It counts as cell-based.
Series [5] deals with mammalian enzymes, receptors and ion channels. The series can be described thus: Safety pharmacology: affinity for a broad array of mammalian enzymes, receptors and ion channels. It counts as binding.
In series [6] the test system is T. cruzi (Brazil strain). The series can be described thus: Mouse cure assays (daily oral treatment, cyclophosphamide immunosuppression, hemoculture, skeletal muscle qPCR). It counts as in vivo, Trypanosoma cruzi. On the procedure: Cure assays: Male or female C57BL/6 mice were intraperitoneally infected with 10^4 trypomastigotes of the Brazil strain. Mouse infection was confirmed at 25-30 dpi by detection of CD8^+ T cells specific against the T. cruzi TSKb20 peptide in blood (Martin, et al., PLoS pathogens 2, e77 (2006)). Compounds resuspended in 1% carboxymethyl cellulose and 0.1% Tween 80, were administered daily by gavage at the specified concentrations. In order to optimally detect persistent infection, immune responses in the mice were suppressed by intraperitoneal injection of four doses of cyclophosphamide every 2-3 days (200 mg/kg/day), beginning one week after the end of therapeutic treatment. At the end of the immunosuppression regimen, peripheral blood was checked under light microscope for parasites and cultured in LDNT media (Bustamante, et al., The Journal of infectious diseases 209, 150-162 (2014)). […] In vivo killing time assays: C57BL/6 mice were infected with 2.5×10^5 Luciferase-expressing T. cruzi (Brazil strain) in the foot pads, and two days later one oral dose of AN14353 (25 mg/kg) was administered. The bioluminescent signal in the feet after i.p. injection of D-luciferin (PerkinElmer; 250 mg/kg) was measured in a Lumina II IVIS imager (PerkinElmer). Low dose short treatment: Hairless mice (SKH-1) were infected intraperitoneally with 5×10^4 Luciferase expressing T. cruzi (Colombiana strain) and orally treated from 12 to 22 dpi with 1, 2.5 or 5 mg/kg of AN16109 or AN15368. Bioluminiscence signal of the whole body was measure after D-luciferin injection in a Lumina II IVIS in vivo imager equipped with the Living Imaging 4.0 software (PerkinElmer).

Another series has as its system CPSF3. The series can be described thus: Resistance of CPSF3 overexpression line and CPSF3 mutant (intracellular amastigotes). The format is cell-based, Trypanosoma cruzi. On the procedure: as §1, with “exposure. […]” for “exposure.”

For `Cc1c(C(=O)N[C@H](C(=O)OCc2ccc(F)c(F)c2)C(C)C)ccc2c1B(O)OC2` [AN14353], the “decrease of in vitro sensitivity of T. cruzi amastigotes after disruption of serine carboxypeptidases” value in series [1] (CBP KO vs wild type (FIG. 2C)) is “up to 100 fold”. In series [2], the “dose proportionality of exposure” value is listed as “non-dose proportional exposure”. In addition, in the series with T. cruzi (Brazil strain) [3], the “in vivo trypanocidal activity (bioluminescence of feet over 72 hrs)” value was “rapid in vivo trypanocidal activity”. Besides, in the series with cytochrome P450 enzymes, the “inhibition of representative cytochrome P450 enzymes” value is recorded as “did not demonstrate significant inhibition”. Besides, in [4], the “sensitivity of extracellular amastigotes” value is listed as “high sensitivity”. The “genotoxicity, Ames” value in the series “Standard Ames study” is “non-genotoxic”. Also, in [5], the “affinity for a broad array of mammalian enzymes, receptors and ion channels” value is “little to no affinity”. Also, the “resolution of infections in immunodeficient mice” value in the series on T. cruzi (Brazil strain) [6] (IFN-gamma deficient mice, 25 mg/kg, 40 days (FIG. 1E)) was “consistently resolve”. In the series with T. cruzi (Brazil strain) [6] (wild-type mice, 25 mg/kg, 40 day treatment (FIG. 1D)), the “resolution of established T. cruzi infections” value was “consistently resolve established T. cruzi infections”.
For `Cc1c(C(=O)N[C@H](C(=O)OCC2CCOCC2)C(C)C)ccc2c1B(O)OC2` [AN15368], the “increased resistance after disruption of CBPs” value in series [1] (intracellular amastigotes, TcCBP KO vs WT (FIG. 5E)) is listed as 1000 ×. The “dose proportionality of exposure” value in [2] was “good dose proportional exposure”. Further, the values for the NOAEL dose in series [2] (humans) and in series [2] (monkeys) were 19.4 mg/kg and 60.5 mg/kg, respectively. The no-observed-adverse-effect level (NOAEL) in [2] (rats) turned out to be 120 mg/kg. In addition, in series [2] (rats), the “drug accumulation between the first and seventh days” value is reported as “no evidence of drug accumulation”. Moreover, the “total plasma exposure (AUC0-24 h)” value in series [2] (rats, 120 mg/kg/day) is given as “approximately 30,000 ng*hr/mL”. For the same compound, the “effects on hematology and clinical chemistry” value in [2] (rats, 120 mg/kg/day or lower) is “none”; in series [2] (rats, 150 mg/kg), “modest effects”. Moreover, the “increase in resistance on overexpression of CPSF3” value in the series on CPSF3 (intracellular amastigotes) is 3-5 fold. Also, the “effect of CPSF3 Asn232 to His mutation” value in the series on CPSF3 (intracellular amastigotes (FIG. 5D)) is “conferred resistance”. Further, the “inhibition of representative cytochrome P450 enzymes” value with cytochrome P450 enzymes was “did not demonstrate significant inhibition”. In addition, the “genotoxicity, Ames” value in the series “Standard Ames study” is given as “non-genotoxic”. For the same compound, the “affinity for a broad array of mammalian enzymes, receptors and ion channels” value in series [5] is “little to no affinity”. Moreover, the “cure of T. cruzi infection in mice” value in the series with T. cruzi (Brazil strain) [6] (in words (FIGS. 3A-3E)) is on record as “cures T. cruzi infection in mice”. This compound gave a minimal efficacious dose in the series with T. cruzi (Brazil strain) [6] (mice (FIG. 3E)) of 2.5 mg/kg.
